Where no end group is shown, it is not given here.
Experiments:
[1] = therapeutic doses; cited from earlier work
[2] = Tejada G Md et al (2015); cited from earlier work
[3] = tested on: HS-rats; assay type: in vivo
Procedure: This study was carried out on 46 male Wistar rats (Charles River Ltd, Margate, UK) weighing 230-350 g receiving a standard diet and water ad libitum. Hemorrhagic shock and quantification of organ injury and dysfunction were performed as described previously in Sordi R et al (2017) Ann Surg, 265(2):408-417. Rats were anesthetized by sodium thiopentone (120 mg/kg i.p. for induction, followed by 10 mg/kg i.v. for maintenance). Cannulation of the trachea, femoral artery (for measuring blood pressure), and carotid arteries (for blood withdrawal), jugular vein (for drug administration), and bladder (for collecting urine) were performed. Blood (up to 1 mL/min) was withdrawn via the cannula inserted in the carotid artery in order to achieve a fall in mean arterial pressure (MAP) to 27 to 32 mmHg. Thereafter, MAP was maintained at this level for a period of 90 min either by further withdrawal of blood during the compensation phase or administration shed blood during the decompensation phase. At 90 min after initiation of hemorrhage (or when 25% of the shed blood had to be re-injected to sustain MAP at 27 to 32 mmHg), animals were resuscitated with the remaining shed blood (mixed with 100 IU/mL heparinized saline) (over a period of 5 min) plus a volume of Ringer's lactate identical to the volume of blood spent during decompensation. During the last 3 h of resuscitation, urine was obtained for the estimation of creatinine clearance. Then, blood samples were collected via the carotid artery for measurement of lactate (Accutrend Plus Meter, Roche Diagnostics, West Sussex, UK) and organ injury/dysfunction parameters. Under deep anesthesia, the heart was removed to terminate the experiment. Blood samples were centrifuged to separate serum, which was used for the determination of urea, creatinine, aspartate aminotransferase (AST), alanine aminotransferase (ALT), lipase, amylase and creatine kinase (CK) by an external contract research facility (IDEXX Laboratories Ltd, West Yorkshire, UK) in a blinded fashion. In addition, lung, kidney and liver samples were taken and stored at −80° C. for further analysis. Sham-operated rats were used as control and underwent identical surgical procedures, but without hemorrhage or resuscitation. Blood pressures during the experiment were measured by Powerlab®, and recorded and analyzed by Labchart® (AD instruments Ltd, Dunedin, New Zealand).
The following groups were studied: Sham+vehicle (n=11), sham+Pep19-4LF (n=6), HS+vehicle (n=12), HS+Pep19-4LF-LD (n=8), HS+Pep19-4LF-HD (n=8), HS+Pep19-2.5-HD (n=8). Rats were administered vehicle (saline 1.5 ml/kg/h) or Pep19-4LF (low dose (LD)=66 μg/kg×h; high dose (HD)=333 μg/kg×h) or Pep19-2.5 (high dose (HD)=333 μg/kg×h) continuously for 4 h after resuscitation using infusion pump for rodents (PHD2000, 70-2000; Harvard apparatus Massachusetts, U.S). 11 rats were excluded from data analysis due to surgical/technical issues (n=5) prior to onset of HS and death during resuscitation (n=6). The doses of Pep19-4LF and Pep19-2.5 used in this study were based on efficacy seen in previous in vitro and in vivo studies (Schuerholz T et al (2013) Crit Care, 17(1):R3; Tejada G Md et al (2015) Sci Rep, 5:14292; Martin L et al (2015) PLoS One, 10(5):e0127584; Martin L et al (2015) PLoS One, 10(11):e0143583).

[4] = tested on: human red blood cells; assay: Hemolysis assay; assay type: cell-based; conditions: concentrations of up to 100 μg/ml, 37° C., 30 min
Procedure: Red blood cells (RBC) were obtained from citrated human blood by centrifugation (1,500×g; 10 min), washed three times with isotonic 20 mM phosphate-NaCl buffer (pH 7.4), and suspended in the same buffer at a concentration equivalent to 5% of the normal hematocrit. Forty-microliter aliquots of this RBC suspension were added to 0.96 ml of Pep19-4LF dilutions prepared in the same isotonic phosphate solution, incubated at 37° C. for 30 min, and centrifuged (1,500×g, 10 min). The supernatants were analyzed spectrophotometrically (with absorbance at 543 nm) for hemoglobin, and results were expressed as the percentage released with respect to sonicated controls (100% release) or controls processed without peptide (0% release).

[5] = HS-rats, high dose 333 μg/kg×h i.v., 4 h after HS, vs vehicle

## LL-37: cathelicidin-derived human AMP (host-defence/antimicrobial peptide) [reference compound]
[1]
  toxicity limiting therapeutic use in man: systemic toxicity
[2]
  effects of LPS and lipoproteins: neutralize

## GCKKYRRFRWKFKGKFWFWG (20-amino acid peptide, Pep19-2.5) [20-mer linear synthetic antimicrobial peptide based on Limulus anti-LPS factor]
[3]; HS-rats
  liver injury caused by HS: significantly attenuated
  pancreatic injury caused by HS: significantly attenuated
  renal dysfunction caused by HS: significantly attenuated
[3]; HS-rats, high dose 333 μg/kg×h i.v. continuously for 4 h after resuscitation, vs HS+vehicle
  decline in MAP during the resuscitation period: significantly attenuated
[3]; [5]
  organ injury and dysfunction caused by HS: significantly attenuated
  rise in lactate caused by HS: significantly attenuated
[2]
  effects of LPS and lipoproteins: neutralize

## GKKYRRFRWKFKGKLFLFG-NH2 [Pep19-4LF, GKKYRRFRWKFKGKLFLFG]
[3]; sham-operated rats, high dose 333 μg/kg×h
  MAP in sham-operated rats: had no effect
[4]
  hemolysis (hemoglobin release): no considerable degree of hemolysis
